Laboratory results reported in ChEMBL document CHEMBL2176907, “Identification of multiple 5-HT₄ partial agonist clinical candidates for the treatment of Alzheimer's disease” (J Med Chem, 2012).
Each block holds one compound with its values, some of them ahead of it. Calls of active or inactive are those of the source. The rule behind the calls is not given here.

How the values were obtained:
[1] = Apparent permeability from apical to basal side of RRCK cells at 2 uM after 2 hrs by transwell assay; format: ADME, cell-based, Canis lupus familiaris, MDCKII-LE; conditions: dog, MDCK
CYP2D6 = CYP2D6 (Homo sapiens, UniProt P10635); test: Inhibition of CYP2D6 in human liver microsomes using dextromethorphan as substrate at 3 uM; format: ADME, Microsome; conditions: probe dextromethorphan
[2] = Intrinsic clearance in human liver microsomes; format: ADME, Microsome; conditions: read-out: CLH
[3] = biological target: T1, 5-hydroxytryptamine receptor 4 (Homo sapiens, UniProt Q13639); test: Agonist activity at human 5HT4D receptor expressed in HEK293 cells assessed as cAMP production after 30 mins by HTRF assay relative to 5HT; format: functional, cell-based
[4] = biological target: T1, 5-hydroxytryptamine receptor 4; test: Agonist activity at human 5HT4D receptor expressed in HEK293 cells assessed as cAMP production after 30 mins by HTRF assay; format: functional, cell-based
MDR1 = test: in vitro; conditions: dog, MDCK-MDR1
Description: Efflux ratio of permeability from basal to apical to apical to basal side of MDCK cells expressing MDR1 at 2 uM after 5 hrs by transwell assay

[5] = biological target: T1, 5-hydroxytryptamine receptor 4; test: biochemical
Description: Displacement of [3H]GR113808 from human 5HT4D receptor expressed in HEK293 cells after 30 mins by liquid scintillation counting

[6] = Intrinsic clearance in dog liver microsomes; format: ADME, Canis lupus familiaris, Microsome; conditions: read-out: CLH
[7] = Oral bioavailability in dog; format: ADME, organism-based, Canis lupus familiaris; conditions: in vivo
[8] = Intrinsic clearance in rat liver microsomes; format: ADME, Microsome; conditions: read-out: CLH
[9] = Oral bioavailability in rat; format: ADME, organism-based; conditions: in vivo
[10] = Clearance in iv dosed dog; format: ADME, organism-based, Canis lupus familiaris; conditions: in vivo
[11] = Clearance in iv dosed rat; format: ADME, organism-based; conditions: in vivo
Canis familiaris [12] = test: Gastrointestinal toxicity in beagle dog assessed as decrease in food intake administered as repeated dose for 7 days measured up to 1 month; format: organism-based, Canis lupus familiaris; conditions: in vivo, 168 h
Rattus norvegicus [13] = test: Gastrointestinal toxicity in Sprague-Dawley rat assessed as decrease in food intake administered as repeated dose for 7 days measured up to 1 month; format: organism-based; conditions: in vivo, 168 h
Rattus norvegicus [14] = test: Gastrointestinal toxicity in female Sprague-Dawley rat assessed as mucosal injury at 30 mg/kg administered as repeated dose for 7 days measured up to 1 month; format: organism-based; set-up: dose 30 mg/kg; conditions: in vivo, 168 h
Rattus norvegicus [15] = test: Gastrointestinal toxicity in male Sprague-Dawley rat assessed as mucosal injury at 100 mg/kg administered as repeated dose for 7 days measured up to 1 month; format: organism-based; set-up: dose 100 mg/kg; conditions: in vivo, 168 h
Rattus norvegicus [16] = test: Gastrointestinal toxicity in female Sprague-Dawley rat assessed as reduction in body weight at 30 mg/kg administered as repeated dose for 7 days measured up to 1 month; format: organism-based; set-up: dose 30 mg/kg; conditions: in vivo, 168 h
Rattus norvegicus [17] = test: Gastrointestinal toxicity in male Sprague-Dawley rat assessed as reduction in body weight at 100 mg/kg administered as repeated dose for 7 days measured up to 1 month; format: organism-based; set-up: dose 100 mg/kg; conditions: in vivo, 168 h
Canis familiaris [18] = test: Gastrointestinal toxicity in beagle dog assessed as emesis at 20 mg/kg administered as repeated dose for 7 days measured up to 1 month; format: organism-based, Canis lupus familiaris; set-up: dose 20 mg/kg; conditions: in vivo, 168 h
Canis familiaris [19] = test: Cardiotoxicity in beagle dog assessed as increase in systolic blood pressure at 0.05 mg/kg administered as repeated dose for 7 days measured up to 1 month; format: toxicity, organism-based, Canis lupus familiaris, Artery; set-up: dose 0.05 mg/kg; conditions: in vivo, 168 h
Canis familiaris [20] = test: Neurotoxicity in beagle dog assessed as convulsions at 30 mg/kg administered as repeated dose for 7 days measured up to 1 month; format: toxicity, organism-based, Canis lupus familiaris; set-up: dose 30 mg/kg; conditions: in vivo, 168 h
Rattus norvegicus [21] = test: Receptor occupancy of 5HT4 receptor in Sprague-Dawley rat brain at 5 mg/kg, sc up to 4 hrs; format: functional; conditions: route subcutaneous
Rattus norvegicus [22] = test: Procognitive activity in Sprague-Dawley rat assessed as increase in acetylcholine level in prefrontal cortex at 5 mg/kg, sc after 3 hrs by brain microdialysis relative to control; format: functional, organism-based; set-up: dose 5 mg/kg
Rattus norvegicus [23] = test: Displacement of [3H]SB207145 from 5HT4 receptor in sc dosed Sprague-Dawley rat striatal membrane incubated for 45 mins prior to [3H]SB207145-adminsitration measured after 15 mins; format: functional, organism-based; conditions: Striatum
Nucleic Acid [24] = test: Ratio of drug uptake in CSF to free drug concentration in plasma in sc dosed Sprague-Dawley rat; format: ADME, organism-based; conditions: in vivo
Nucleic Acid [25] = test: Ratio of drug uptake in CSF to free drug concentration in brain in sc dosed Sprague-Dawley rat; format: ADME, organism-based; conditions: in vivo
[26] = Ratio of free drug concentration in brain to free drug concentration in plasma in sc dosed Sprague-Dawley rat; format: ADME, organism-based; conditions: read-out: K(p,uu,brain)
[27] = AUC (0 to 4 hrs) in sc dosed Sprague-Dawley rat CSF by LC-MS/MS analysis; format: ADME, organism-based; set-up: time < 4 hr, route subcutaneous
Plasma = test: Free AUC (0 to 4 hrs) in sc dosed Sprague-Dawley rat plasma by LC-MS/MS analysis; format: ADME, organism-based; conditions: in vivo
Brain = test: Free AUC (0 to 4 hrs) in sc dosed Sprague-Dawley rat brain by LC-MS/MS analysis; format: ADME, organism-based; conditions: in vivo
[28] = biological target: T2, 5-hydroxytryptamine receptor 4 (Rattus norvegicus, UniProt Q62758)
Description: Agonist activity at rat 5HT4E receptor expressed in HEK293 cells assessed as increase in cAMP production after 30 mins by HTRF assay

[29] = biological target: T2, 5-hydroxytryptamine receptor 4; remark: listed apart in the source
Description: Agonist activity at rat 5HT4S receptor expressed in HEK293 cells assessed as increase in cAMP production after 30 mins by HTRF assay

[30] = biological target: T2, 5-hydroxytryptamine receptor 4; remark: listed apart in the source
Description: Agonist activity at rat 5HT4L receptor expressed in HEK293 cells assessed as increase in cAMP production after 30 mins by HTRF assay

[31] = biological target: T1, 5-hydroxytryptamine receptor 4
Description: Agonist activity at human 5HT4E receptor expressed in HEK293 cells assessed as increase in cAMP production after 30 mins by HTRF assay

[32] = biological target: T1, 5-hydroxytryptamine receptor 4; remark: listed apart in the source
Description: Agonist activity at human 5HT4B receptor expressed in HEK293 cells assessed as increase in cAMP production after 30 mins by HTRF assay

[33] = biological target: T1, 5-hydroxytryptamine receptor 4; remark: listed apart in the source
Description: Agonist activity at human 5HT4A receptor expressed in HEK293 cells assessed as increase in cAMP production after 30 mins by HTRF assay

[34] = biological target: T2, 5-hydroxytryptamine receptor 4; remark: listed apart in the source
Description: Displacement of [3H]GR113808 from 5HT4 receptor in rat striatal membrane after 30 mins by liquid scintillation counting

[35] = biological target: T1, 5-hydroxytryptamine receptor 4; test: biochemical; remark: listed apart in the source
Description: Displacement of [3H]GR113808 from human 5HT4E receptor expressed in CHO cells after 30 mins by liquid scintillation counting

[36] = biological target: T1, 5-hydroxytryptamine receptor 4; test: biochemical; remark: listed apart in the source
Description: Displacement of [3H]GR113808 from human 5HT4B receptor expressed in HEK293 cells after 30 mins by liquid scintillation counting

[37] = biological target: T1, 5-hydroxytryptamine receptor 4; test: biochemical; remark: listed apart in the source
Description: Displacement of [3H]GR113808 from human 5HT4A receptor expressed in HEK293 cells after 30 mins by liquid scintillation counting

[38] = biological target: 5-hydroxytryptamine receptor 4 (Rattus norvegicus) (UniProt Q62758); test: Agonist activity at 5HT4 receptor in rat oesophagus assessed as reversal of carbamylcholine-induced contraction at 10 uM incubated at 7 mins post carbamylcholine-challenge measured after 30 mins relative to 5HT; format: functional
5-hydroxytryptamine receptor 4 (Rattus norvegicus), sequence (Q62758 whole entry): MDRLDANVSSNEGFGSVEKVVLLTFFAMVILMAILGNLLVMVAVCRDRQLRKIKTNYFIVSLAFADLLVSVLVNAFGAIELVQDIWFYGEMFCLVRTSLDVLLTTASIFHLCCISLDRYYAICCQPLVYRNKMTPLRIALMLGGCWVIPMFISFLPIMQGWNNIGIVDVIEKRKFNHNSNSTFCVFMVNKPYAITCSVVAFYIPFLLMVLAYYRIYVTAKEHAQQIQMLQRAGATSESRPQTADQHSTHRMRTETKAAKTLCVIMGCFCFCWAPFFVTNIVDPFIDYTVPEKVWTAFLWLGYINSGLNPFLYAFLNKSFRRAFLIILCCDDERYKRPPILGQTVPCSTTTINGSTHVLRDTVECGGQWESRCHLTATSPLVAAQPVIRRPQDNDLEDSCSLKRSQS

T2 sequence (Q62758 whole entry): as above
T1 sequence (Q13639 whole entry): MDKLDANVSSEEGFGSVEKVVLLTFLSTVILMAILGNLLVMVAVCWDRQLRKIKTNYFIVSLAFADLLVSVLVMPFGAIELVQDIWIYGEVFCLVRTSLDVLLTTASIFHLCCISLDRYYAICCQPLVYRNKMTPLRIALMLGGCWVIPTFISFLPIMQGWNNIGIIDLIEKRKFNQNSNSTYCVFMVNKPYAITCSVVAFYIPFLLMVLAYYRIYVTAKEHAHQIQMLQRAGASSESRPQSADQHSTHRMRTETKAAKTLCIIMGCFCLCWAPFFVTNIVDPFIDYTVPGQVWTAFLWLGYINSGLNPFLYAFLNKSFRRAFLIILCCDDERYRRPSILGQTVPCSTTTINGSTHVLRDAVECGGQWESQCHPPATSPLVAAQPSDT
CYP2D6, sequence (P10635 whole entry): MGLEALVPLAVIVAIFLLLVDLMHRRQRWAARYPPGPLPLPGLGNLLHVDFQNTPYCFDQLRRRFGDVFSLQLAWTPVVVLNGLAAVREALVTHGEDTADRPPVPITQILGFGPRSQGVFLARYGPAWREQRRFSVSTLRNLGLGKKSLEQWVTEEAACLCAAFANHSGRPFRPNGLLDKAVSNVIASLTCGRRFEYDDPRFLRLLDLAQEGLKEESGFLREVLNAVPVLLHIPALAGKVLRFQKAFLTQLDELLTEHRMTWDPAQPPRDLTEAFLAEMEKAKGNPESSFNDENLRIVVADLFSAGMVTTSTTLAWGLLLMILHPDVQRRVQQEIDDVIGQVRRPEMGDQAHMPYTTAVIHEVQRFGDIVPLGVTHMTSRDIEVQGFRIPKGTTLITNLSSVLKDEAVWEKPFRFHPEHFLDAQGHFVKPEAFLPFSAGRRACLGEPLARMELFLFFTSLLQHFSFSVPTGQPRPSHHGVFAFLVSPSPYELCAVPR

SMILES: CC(C)(O)COc1cccc2onc(OCC3CCN(CC4(O)CCOCC4)CC3)c12
Papp A→B at 2 h, 2 µM [1]: 35 ×10⁻⁶ cm/s
inhibition at 3 µM (CYP2D6): 21%
CLint scaled [2]: 38 mL/min/kg
Emax [3]: 50%
EC50 [4]: 1.7 nM
efflux ratio at 5 h, 2 µM (MDR1): 1.6
Ki [5]: 3.6 nM

SMILES: COCCCN1CCC(NC(=O)c2cc(Cl)c(N)c3c2OCC3)CC1
Activity [38]: Active

SMILES: CCCCN1CCC(COc2noc3cccc(OC4CCCC4)c23)CC1
Papp A→B at 2 h, 2 µM [1]: 2.4 ×10⁻⁶ cm/s
inhibition at 3 µM (CYP2D6): 79%
CLint scaled [2]: 77 mL/min/kg
Emax [3]: 81%
EC50 [4]: 1.2 nM
Ki [5]: 0.74 nM

Now from value to compound, other results behind:

Papp A→B at 2 h, 2 µM [1]: 15 ×10⁻⁶ cm/s
inhibition at 3 µM (CYP2D6): 37%
CLint scaled [2]: 56 mL/min/kg
Emax [3]: 28%
EC50 [4]: 0.4 nM
efflux ratio at 5 h, 2 µM (MDR1): 2.2
Ki [5]: 0.5 nM
SMILES: O[C@@H]1CC[C@@H](Oc2cccc3onc(OCC4CCN(CC5(O)CCOCC5)CC4)c23)C1

CLint scaled [6]: 35.4 mL/min/kg
bioavailability [7]: 51%
CLint scaled [8]: 42.7 mL/min/kg
bioavailability [9]: 100%
clearance [10]: 12.4 mL/min/kg
clearance [11]: 104 mL/min/kg
Activity (Rattus norvegicus [23]): Dose-dependent effect
Ratio (Nucleic Acid [24]): 0.8
Ratio (Nucleic Acid [25]): 2.1
Kp uu [26]: 1.8
AUC(0-t) at 4 h [27]: 1.38 µM·h
fAUC (Plasma): 1.669 µM·h
fAUC (Brain): 2.922 µM·h
Papp A→B at 2 h, 2 µM [1]: > 27 ×10⁻⁶ cm/s
CLint scaled [2]: 25.4 mL/min/kg
Emax [3]: 35%
EC50 [4]: 0.9 nM
EC50 [28]: 2.15 nM
EC50 [29]: 1.15 nM
EC50 [30]: 1.52 nM
EC50 [31]: 1.2 nM
EC50 [32]: 1.3 nM
EC50 [33]: 0.8 nM
Ki [34]: 3.9 nM
efflux ratio at 5 h, 2 µM (MDR1): 1.37
Ki [35]: 6.3 nM
Ki [36]: 6.8 nM
Ki [37]: 4.6 nM
Ki [5]: 2.7 nM
SMILES: CC1(C)C(=O)N(C(=O)NCC2CCN(CC3(O)CCOCC3)CC2)c2cc(F)ccc21 [PF-03382792]
Activity (Canis familiaris [12]): Toxic
Activity (Rattus norvegicus [13]): Toxic
Activity (Rattus norvegicus [14]): Toxic
Activity (Rattus norvegicus [15]): Toxic
Activity (Rattus norvegicus [16]): Toxic
Activity (Rattus norvegicus [17]): Toxic
Activity (Canis familiaris [18]): Toxic
Activity (Canis familiaris [19]): Toxic
Activity (Canis familiaris [20]): Toxic
Occ (Rattus norvegicus [21]): >90%
Activity (Rattus norvegicus [22]): Active
